Measurements reported in US3962443A, “Antibacterial pharmaceutical compositions and processes for preparation thereof” (Dainippon Pharmaceutical Co., Ltd., priority 1972, dated 1976).
Converted amounts (≈) assume the structure as drawn. Like-named read-outs stand apart in the source and are kept apart here.

Experiments:
[1] = system: Staphylococcus aureus Terajima; test: In vitro antibacterial activity, MIC by serial dilution; type: cell-based; details: nutrient broth pH 7.0, 37°C, 48 hours
Procedure: (§1) The minimum inhibitory concentration (MIC) was determined by the well
(§2) known serial dilution method.
(§3) Experimental conditions:?
(§4) Medium: nutrient broth, pH 7.0 (5 ml/tube)
(§5) Inoculum: 1 drop of 1 : 10^5 dilution of an overnight broth culture
(§6) Incubation temperature and time: 37°C for 48 hours

[2] = system: Pseudomonas aeruginosa Tsuchijima; test: as above; type: cell-based; details: nutrient broth pH 7.0, 37°C, 48 hours
Procedure: as §1, §2, §3, §4, §5, §6

Escherichia coli K-12 = test: as above; type: cell-based
Procedure: as §1, §2, §3, §4, §5, §6

[3] = system: Salmonella typhimurium S-9; test: In vivo efficacy against systemic infection with Salmonella typhimurium in mice; parameters: species or system mice (ddY-S); details: for ED50: Salmonella enterica, TYPHIMURIUM, 336 h, twice a day for 4 days, 14 days observation; for number of the survived/the total number: 14 days
Procedure: (§7) In the Tables II to IV, the ED50 and ID50 values were calculated in accordance with the Behrens-Kaerber method [Arch. Exp. Path. Pharm., 162, 480 (1931)]. The compound numbers are those described in the Examples and compounds PA and AT-616 are as follows:
The numerical figures in the table show the number of the survived/the
(§8) total number. 0/8 means that all of 8 mice died. 8/8 means that all 8 mic
Experimental conditions.
Organism: Salmonella typhimurium S-9
(§9) Mice: male mice (ddY-S) weighing 20 g approximately
Infection: Intraperitoneal infection with 50 to 100 LD50 of a
bacterial suspension in nutrient broth (about 10^5 cells/mouse)
Medication: twice a day for 4 days from the day of infection.
Drug: an alkaline solution for parenteral administration and suspension i
0.2% CMC for oral administration
i.e.: intraperitoneal administration
p.o.: oral administration

[4] = system: Pseudomonas aeruginosa No. 12; test: In vivo efficacy against systemic infection with Pseudomonas aeruginosa in mice; parameters: species or system mice (ddY-S); details: NO.12, 168 h, 7 days; for responders at 25 mg/kg / responders at 50 mg/kg / responders at 100 mg/kg / responders at 200 mg/kg: read-out: number of the survival/the total number (converted); for ED50: twice, about 5 minutes and 6 hours after infection
Procedure: as §7, §8, §9

[5] = system: Mycobacterium tuberculosis H37 Rv; test: Antituberculous activity in vitro, MIC by serial dilution; type: cell-based; details: H37RV, 504 h, Kirchner medium with 0.2% bovine albumin, pH 7.0, 37°C, 3 weeks
Procedure: (§10) The minimum inhibitory concentration (MIC:μg/ml) was determined by the
(§11) well known serial dilution method.
as §3
(§12) Medium: Kirchner medium containing 0.2% bovine albumin, pH 7.0 (3 ml/tube
(§13) Inoculum: 1 drop of 1:10^2 dilution of a culture in Modified Kirchner
(§14) medium for 2 weeks (OD=0.3) per tube
(§15) Incubation temp. and time: 37°C for 3 weeks

[6] = system: Mycobacterium tuberculosis Kurono; test: as above; type: cell-based; details: 504 h, Kirchner medium with 0.2% bovine albumin, pH 7.0, 37°C, 3 weeks
Procedure: as §10, §11, §3, §12, §13, §14, §15

[7] = K12, Escherichia coli K-12, nutrient broth pH 7.0, 37°C, 48 hours, read-out: MIC

SMILES | MIC [1] | MIC [2] | MIC (Escherichia coli K-12; [7]) | ED50 ([3]; ip) | ED50 ([3]; po) | responders at 50 mg/kg ([4]; ip) | responders at 100 mg/kg ([4]; ip) | ED50 ([4]; ip) | responders at 200 mg/kg ([4]; po) | ED50 ([4]; po) | also measured
CCn1cc(C(=O)O)c(=O)c2cnc(N3CCN(CC(C)O)CC3)nc21 (stereo not drawn) [Compound 4, 5,8-Dihydro-8-ethyl-2-[4-(2-hydroxy-n-propyl)-1-piperazinyl]-5-oxopyrido[2,3-d]pyrimidine-6-carboxylic acid] | 30 µg/mL (≈ 83 µM) | 100 µg/mL (≈ 277 µM) | 3 µg/mL (≈ 8.3 µM) | < 35.4 mg/kg | < 35.4 mg/kg | – | – | – | – | – | number of the survived/the total number ([3]; ip, 50 mg/kg): 8/8; number of the survived/the total number ([3]; po, 50 mg/kg): 8/8
C=CCn1cc(C(=O)O)c(=O)c2cnc(N3CCNCC3)nc21 [Compound 50] | 100 µg/mL (≈ 317 µM) | 30 µg/mL (≈ 95.1 µM) | 10 µg/mL (≈ 31.7 µM) | – | – | 87.5% | 100% | 35 mg/kg | – | – | responders at 25 mg/kg ([4]; ip): 12.5%
CCN1CCN(c2ncc3c(=O)c(C(=O)O)cn(CC)c3n2)CC1 [Compound 21, 2-(4-ethyl-1-piperazinyl)-5,8-dihydro-8-ethyl-5-oxopyrido[2,3-d]pyrimidine-6-carboxylic acid] | 30 µg/mL (≈ 90.5 µM) | 100 µg/mL (≈ 302 µM) | 1 µg/mL (≈ 3.02 µM) | < 17.7 mg/kg | < 17.7 mg/kg | 0% | 50% | ~100 mg/kg | 50% | ~200 mg/kg | number of the survived/the total number ([3]; ip, 25 mg/kg): 8/8; number of the survived/the total number ([3]; po, 25 mg/kg): 8/8
Cl.O=C(O)c1cn(CCCl)c2nc(N3CCNCC3)ncc2c1=O [Compound 63, 8-(2-chloroethyl)-5,8-dihydro-2-(1-piperazinyl)-5-oxopyrido[2,3-d]pyrimidine-6-carboxylic acid hydrochloride] | 30 µg/mL | 30 µg/mL | 3 µg/mL | – | – | 100% | – | < 17.7 mg/kg | – | – | responders at 25 mg/kg ([4]; ip): 100%
CCn1cc(C(=O)O)c(=O)c2cnc(N3CCN(c4ccccc4)CC3)nc21 [Compound 6, 5,8-Dihydro-8-ethyl-2-(4-phenyl-1-piperazinyl)-5-oxoprido[2,3-d]pyrimidine-6-carboxylic acid] | – | – | – | – | – | – | – | – | – | – | MIC [5]: 6.3 µg/mL (≈ 16.6 µM); MIC [6]: 6.3 µg/mL (≈ 16.6 µM)
CCn1cc(C(=O)O)c(=O)c2cnc(N3CCCC3)nc21 [Compound PA, reference compound] | 10 µg/mL (≈ 34.7 µM) | 100 µg/mL (≈ 347 µM) | 1 µg/mL (≈ 3.47 µM) | 43.5 mg/kg | 46.7 mg/kg | – | 0% | > 100 mg/kg | 0% | > 200 mg/kg | MIC [5]: 100 µg/mL (≈ 347 µM); MIC [6]: 100 µg/mL (≈ 347 µM); number of the survived/the total number ([3]; ip, 12.5 mg/kg): 0/10; number of the survived/the total number ([3]; ip, 25 mg/kg): 3/10; number of the survived/the total number ([3]; ip, 50 mg/kg): 5/10; number of the survived/the total number ([3]; ip, 100 mg/kg): 9/10; number of the survived/the total number ([3]; po, 12.5 mg/kg): 0/10; number of the survived/the total number ([3]; po, 25 mg/kg): 3/10; number of the survived/the total number ([3]; po, 50 mg/kg): 4/10; number of the survived/the total number ([3]; po, 100 mg/kg): 10/10
CCCn1cc(C(=O)O)c(=O)c2cnc(N3CCNCC3)nc21 [Compound 2, 5,8-Dihydro-2-(1-piperazinyl)-8-n-propyl-5-oxopyrido[2,3-d]pyrimidine-6-carboxylic acid] | 100 µg/mL (≈ 315 µM) | 30 µg/mL (≈ 94.5 µM) | – | – | – | 100% | – | 35.4 mg/kg | 62.5% | < 200 mg/kg | MIC (Escherichia coli K-12; Escherichia coli, K12, 48 h, pH 7): 3 µg/mL (≈ 9.45 µM)
